The source of these data is article PMC11566429 (Genes and Environment, 2024).

The test system of data set [1] is TA100, TA1535, TA98, TA1537, and WP2uvrA. The data set can be described thus: Ames test (preincubation method), five standard strains, overall judgement. As to conditions: for Ames test result (in words, text): presence and absence of S9 mix; for Ames test: presence and absence of rat liver S9 mix. The method, then:
The S9 mix (0.5 mL) consisted of 0.05 mL of the S9 fraction and 0.45 mL of a cofactor solution (Cofactor-1®; Oriental Yeast Co., Ltd.), and contained 8 mM MgCl2, 33 mM KCl, 5 mM glucose-6-phosphate, 4 mM NADPH, 4 mM NADH and 100 mM sodium phosphate (pH 7.4).
Four strains of Salmonella typhimurium, TA100, TA1535, TA98, and TA1537 and one strain of Escherichia coli, WP2uvrA were used.
Ames test was conducted using the preincubation method. […] For the tests carried out in the absence of S9 mix, 0.1 mL of the negative control (vehicle), test chemical solution at various concentrations, or positive control solution was added to a test tube, to which 0.5 mL of 100 mM sodium phosphate buffer (pH 7.4) and 0.1 mL of bacterial culture were added. For the tests carried out in the presence of the S9 mix, the S9 mix was added instead of the phosphate buffer. After mixing, the test tubes were preincubated at 37 °C for 20 min in a shaking water bath. After completion, the treatment mixture was immediately added and mixed with 2 mL of 0.05 mM L-histidine/0.05 mM biotin/0.05 mM L-tryptophan molten top agar and the content was poured onto a plate of minimal-glucose agar medium (Tesmedia®, Oriental Yeast). The plates were incubated at 37 °C for approximately 48 h and the revertant colonies that appeared were counted. The sign of the bacterial background lawn was examined as an indicator of cytotoxicity. In addition, the presence or absence of precipitates from the test chemicals was evaluated.
Multiple tests (dose-finding, main, or confirmatory tests) were conducted. The dose-finding test for almost all the test chemicals was conducted with TA100 in the presence and absence of the S9 mix in a single plate per dose. The main test was conducted in duplicate with the five strains in the presence and absence of the S9 mix. […] Dimethyl sulfoxide (DMSO) was used as a negative control (vehicle).
Mutagenicity was evaluated according to the so-called “two-fold” rule for TA100, TA98, and WP2uvrA, or “three-fold” rule for TA1535 and TA1537 [19]. […] Historical negative control counts were also considered during the evaluation.
(In general: In the Ames test, an excess of revertant colonies over the control signals mutagenicity.)

Another data set deals with TA100. In words: Ames test, mutagenic activity in TA100. Format: cell-based, Salmonella typhimurium. As to conditions: maximum mutagenic activity. An excerpt:
(§1) The maximum mutagenic activity (rev/mg) was used as an indicator of the magnitude of mutagenicity among those calculated according to the following equation from each representative experiment (main test or confirmatory test) for chemicals that were judged positive: Mutagenic activity (rev/mg) = (number of revertant colonies at each dose—number of revertant colonies for the negative control) / dose (mg).

The next data set concerns TA98. The data set can be described thus: Ames test, mutagenic activity in TA98. The data set is classed as cell-based, Salmonella typhimurium. As to conditions: maximum mutagenic activity.
Source text: as §1

Another data set concerns TA100, TA98. As to conditions: cited from earlier work.
Data set [2] deals with TA100, TA1535, TA98, TA1537, TA97. As to conditions: TA100, TA1535, TA98, TA1537, TA97 (± S9) ref 16; cited from earlier work.
The next data set concerns TA1537. Format: cell-based, Salmonella typhimurium. As to conditions: TA1537 -S9, maximum mutagenic activity.
Source text: as §1

Another data set relates to WP2uvrA. In words: Ames test, mutagenic activity in WP2uvrA. As to conditions: maximum mutagenic activity. The data set is classed as cell-based, Escherichia coli.
Source text: as §1

The test system of data set [3] is TA100, TA1535, TA98, TA1537, WP2uvrA. As to conditions: TA100, TA1535, TA98, TA1537, WP2uvrA (± S9) ref 9; cited from earlier work.
Another data set concerns TA100, TA98, TA102. As to conditions: TA100, TA98, TA102 (± S9) ref 7; cited from earlier work.
Data set [4] has as its system TA100, TA1535, TA98, TA1537, TA1538. As to conditions: presence or absence of S9 mix not clearly indicated ref 7; cited from earlier work.

SMILES strings stand for the structures. Entries after “also recorded” stand apart in the source; their conditions may differ. Like-named read-outs stand apart in the source and are kept apart here.

In the case of `c1cnc2cccnc2c1` [1,5-Naphthyridine], the “Ames test result (in words, text)” value in data set [1] is on record as “only mutagenic in TA100; also recorded: mutagenic only in the presence of the S9 mix”. Also, the Ames test entry in [1] (quinoline analogues) is recorded as “++ ("mutagenic (100-1000 rev/mg)" in Ames test)”. Besides, the “Tester strains showing positive (mutagenic activity in rev/mg)” value (shortened to “Tester strains showing positive”) was “TA100 +S9 (419) rev/mg” in the data set on TA100 (TA100 +S9) and 419 rev/mg with TA100 (TA100 +S9, listed as 1,5-naphthyridine).

Consider `c1cnc2ccncc2c1` [1,6-Naphthyridine], for which the “Ames test result (in words, text)” value in [1] is “not mutagenic”.

Regarding `c1cnc2cnccc2c1` [1,7-Naphthyridine], the “Ames test result (in words, text)” value was “mutagenic in both TA100 and TA98” in data set [1]; “mutagenic both in the presence and absence of the S9 mix” in data set [1] (listed as 1,7-naphthyridine). In [1] (quinoline analogues), the Ames test result is recorded as “++ ("mutagenic (100-1000 rev/mg)" in Ames test)”. The “Tester strains showing positive” value turned out to be 255 rev/mg in the data set on TA100 (TA100 +S9), 40 rev/mg with TA100 (TA100 -S9), 24 rev/mg in the data set on TA98 (TA98 +S9) and 12 rev/mg in the data set on TA98 (TA98 -S9).

As to `c1cnc2ncccc2c1` [1,8-Naphthyridine], the “Ames test result (in words, text)” value in [1] is recorded as “only mutagenic in TA100; also recorded: mutagenic only in the presence of the S9 mix”. Besides, the Ames test result in [1] (quinoline analogues) is on record as “++ ("mutagenic (100-1000 rev/mg)" in Ames test)”. Also, the “Tester strains showing positive” value was “TA100 +S9 (170) rev/mg” in the data set with TA100 (TA100 +S9) and 170 rev/mg with TA100 (TA100 +S9, listed as 1,8-naphthyridine).

In the case of `c1cc2cnccc2cn1` [2,6-Naphthyridine], the “Ames test result (in words, text)” value in data set [1] is “non-mutagenic”.

With `c1cc2ccncc2cn1` [2,7-Naphthyridine], the “Ames test result (in words, text)” value in data set [1] is “non-mutagenic”.

Regarding `c1cnc2cc[nH]c2c1` [4-Azaindole, 1H-Pyrrolo[3,2-b]pyridine], the Ames test result in data set [1] (indole analogues) is given as “+ ("mutagenic (< 100 revertants/mg)" in Ames test)”. Further, the “Ames test result (in words, text)” value in data set [1] is on record as “mutagenic in the absence of S9 mix with TA1537”.

With `c1ncc2[nH]ccc2n1` [5H-Pyrrolo[3,2-d]pyrimidine], in data set [1], the “Ames test result (in words, text)” value was “non-mutagenic”.

With `c1ccc2[nH]cnc2c1` [Benzimidazole], the “Ames test result (in words, text)” value in [1] is listed as “not mutagenic”. Further, the Ames test result is on record as “Non-mutagenic” in the data set on TA100, TA98 (TA100, TA98 (-S9) ref 14) and “Non-mutagenic” in data set [2].

`c1ccc2nnccc2c1` [Cinnoline]: the results for the “Ames test result (in words, text)” value in data set [1] and in data set [1] (listed as cinnoline) were “mutagenic in TA1537; also recorded: mutagenic only in the absence of the S9 mix” and “mutagenic in the absence of S9 mix with TA1537”, respectively. Further, the Ames test entry in data set [1] (quinoline analogues) is recorded as “+ ("mutagenic (< 100 revertants/mg)" in Ames test)”. Further, the “Tester strains showing positive” value with TA1537 is recorded as “TA1537 -S9 (13) rev/mg”; in the data set with TA1537 (listed as cinnoline), 13 rev/mg.

Consider `c1ccc2[nH]ncc2c1` [Indazole], for which the Ames test entry in [1] (indole analogues) is “+ ("mutagenic (< 100 revertants/mg)" in Ames test)”. In addition, the “Ames test result (in words, text)” value in [1] was “mutagenic in the presence and absence of S9 mix with WP2uvrA”. Also, the “Tester strains showing positive” value in the data set with WP2uvrA (WP2uvrA +S9) is 38 rev/mg; in the data set on WP2uvrA (WP2uvrA -S9), 40 rev/mg. The Ames test result with TA100, TA98 (TA100, TA98 (-S9) ref 14) is “Non-mutagenic”.

For `c1ccc2cnccc2c1` [Isoquinoline], the “Ames test result (in words, text)” value in data set [1] is recorded as “non-mutagenic”. In addition, the Ames test result in the data set with TA100, TA98 (TA100, TA98 (± S9) ref 10) is reported as “Non-mutagenic”.

As to `c1ccc2cnncc2c1` [Phthalazine], the “Ames test result (in words, text)” value in [1] is given as “non-mutagenic”. In addition, in the data set with TA100, TA98 (TA100, TA98 (± S9) ref 11), the Ames test result is “Non-mutagenic”.

On to `c1cnc2[nH]ncc2c1` [Pyrazolo[3,4-b]pyridine], for which the “Ames test result (in words, text)” value in data set [1] is “non-mutagenic”.

`c1ccc2ncncc2c1` [Quinazoline]: the “Ames test result (in words, text)” value in [1] is “non-mutagenic”.

Turning to `c1ccc2ncccc2c1` [Quinoline], in [1], the “Ames test result (in words, text)” value is “only mutagenic in TA100; also recorded: mutagenic only in the presence of the S9 mix”. In addition, in [1] (quinoline analogues), the Ames test result is “+++ ("mutagenic (>1000 revertants/mg)" in Ames test)”. The Ames test result in data set [3] is “Mutagenic (+ S9) in TA100, TA98, WP2uvrA”.

With `c1ccc2nccnc2c1` [Quinoxaline], the “Ames test result (in words, text)” value in data set [1] is reported as “non-mutagenic”. The Ames test result with TA100, TA98, TA102 is reported as “Mutagenic (+ S9) in TA98”; in data set [4], “Non-mutagenic”.
